These results are taken from patent publication US20230234993A1, “COMPOSITION FOR PREVENTING OR TREATING NEUROLOGICAL DISEASES RELATED TO COPPER METABOLISM, COMPRISING MULTI-COPPER OXIDASE PEPTIDE” (NATIONAL MARINE BIODIVERSITY INSTITUTE OF KOREA, priority 2020, published 2023).

Where no end group is shown, it is not given here.

What all share (type): in vivo
Data set [1] has as its system zebrafish embryos exposed to copper. In words: Hatching rate under copper overexposure conditions. The protocol: Through hatching rate examination, the activities of CP002 and CP002S were analyzed in zebrafish embryos exposed to copper. Specifically, the development process of fertilized eggs obtained by mating male and female wild-type zebrafish was safely maintained in an incubator. At 24 hours after fertilization, normally grown embryos were dispensed into a 24-well plate by 13 subjects and maintained under copper overexposure conditions. The dispensed subjects were treated with CP002 (5, 10 μM), CP002S (5, 10 μM), DPA (5, 10 μM), or TETA (5, 10 μM). From 48 hours to 52, 56, 60, 72, and 80 hours after fertilization (24 hours after treatment) when hatching started, the number of hatched subjects in each group was examined. A negative control group in the experiment was a 0.1% DMSO treated group (normal group) and a copper overexposed group (4 μM CuSO4), and a positive control group was a CP002 treated group; a DPA (penicillamine/D-Penicillamine) treated group; and a TETA (trientine/Trientine) treated group. The DPA and TETA were drugs that have been used as therapeutic agents for Wilson's disease and copper overexposure in the related art. The results of examining the hatching rate were illustrated in FIG. 9.

Data set [2] deals with myelinated cells in the nervous system of zebrafish embryos under copper overexposure. Kind of data set: Myelination defect of cranial ganglia in copper overexposure nervous system model (fluorescence microscopy). As to conditions: 6 days of drug treatment; for subjects expressing the fluorescent protein (cranial ganglia): with copper, concentration not given. The protocol:
The development process of fertilized eggs obtained by mating male and female wild-type zebrafish was safely maintained in an incubator (28.5° C.). At 24 hours after fertilization, normally grown embryos were dispensed into a 24-well plate by 10 subjects and maintained under copper overexposure conditions. To examine the developmental defects of myelinated cells in the nervous system due to copper overexposure and a therapeutic effect of a multi-copper oxidase peptide, CP002S (10 μM) was treated. After 6 days of drug treatment, the subjects were anesthetized with tricaine and placed in 3% methylcellulose. The myelination defect of cranial ganglia (Cg) was observed through fluorescence microscopy, and fluorescent proteins were divided into a normal and a defect according to an expression level. A negative control group in the experiment was a 0.1% DMSO treated group (normal group) and a copper overexposed group, and a positive control group was a DPA (penicillamine/D-Penicillamine) treated group; and a TETA (trientine/Trientine) treated group. The results observed with a fluorescence microscope were illustrated in FIG. 10A, and the results of analyzing the therapeutic effect based on the fluorescence microscope observation results were illustrated in FIG. 10B.

Data set [3] deals with zebrafish embryos under copper overexposure conditions. Kind of data set: Cardiotoxicity (heart rate) in copper-overexposed nervous system model. How it is done:
The development process of fertilized eggs obtained by mating male and female wild-type zebrafish was safely maintained in an incubator (28.5° C.). At 24 hours after fertilization, normally grown embryos were dispensed into a 24-well plate by 20 subjects and maintained under copper overexposure conditions. On 4.5 days after treatment (5.5 days after fertilization), 7 subjects per group were randomly selected, 3% methylcellulose was put in a hole slide glass, and the heart of each subject was located on the hole slide glass to be observed with the naked eye through a stereoscopic microscope lens and observed under a microscope. The heart rate was measured together with the movement of the atria and the ventricles for 20 seconds for each subject in each group to be converted to a heart rate per minute and the average heart rate for each group was compared through a PRISM (Bonfferroni's Multiple Comparison Test, One-way ANOVA) program. In addition, the heart rate inhibition rate was calculated as follows using an average heart rate of the control group. Heart rate inhibition rate=[(average heart rate by group−average heart rate in control group)×100]/average heart rate in control group […] The results of measuring the heart rate in the copper overexposed model animal were illustrated in FIG. 11A, and the heart rate inhibition rate calculated based on the heart rate measurement results was illustrated in FIG. 11B.

Data set [4] deals with wild-type zebrafish fertilized eggs. Kind of data set: Developmental toxicity analysis of multi-copper oxidase-derived peptides (number of surviving subjects, viability). The protocol:
The developmental toxicity of CP001 (SEQ ID NO: 3) and CP002 (SEQ ID NO: 4), which were multi-copper oxidase-derived peptides, was analyzed. Specifically, fertilized eggs were obtained by mating wild-type zebrafish. After the obtained fertilized eggs were maintained in an incubator for 24 hours, 7 subjects were dispensed into each well of a 24-well plate. The dispensed subjects were treated with CP001 and CP002 at various concentrations (10, 50, and 100 μM). After treatment with the CP001 and CP002, the number of surviving subjects at 2, 6, 22, and 36 hours was confirmed using a microscope, and the viability was calculated based on the results. The control group of the experiment was treated with 0.1% DMSO. The result of confirming the number of surviving subjects was illustrated in FIG. 5A and the calculation result of the viability was illustrated in FIG. 5B.
The experiment was performed in the same method as described above, and the treatment concentrations of CP001 and CP002 were as follows. • CP001: 1 μM, 4 μM • CP002: 5 μM, 10 μM

Data set [5] relates to wild-type zebrafish embryos. In words: Abnormal blood deposition in tissue by hematological staining after ceruloplasmin mRNA injection. As to conditions: 180 pg or 350 pg mRNA injected into embryos at 1 to 4 cell stages; 48 hours after injection; compared to normal group. The protocol: Specifically, the ceruloplasmin gene (SEQ ID NO: 1) derived from Octopus minor obtained in Example 1 was treated with restriction enzymes Cla 1 and Xho 1, and inserted into a pCS2+ expression vector. A restriction enzyme Sac II was treated to the pCS2+ expression vector into which the ceruloplasmin gene was inserted, to prepare linear DNA. An mRNA using the linear DNA as a template was synthesized by an in vitro transcription (Sp6, Invitrogen) method.
After obtaining fertilized eggs by mating wild-type zebrafish, embryos at 1 to 4 cell stages were arranged on an injection plate. After loading the synthesized ceruloplasmin mRNA in a microglass tube with a microloder tip, a predetermined concentration (180 pg or 350 pg) thereof was injected into the embryo using a microinjector, a picopump, and a microscope. Subjects injected with the ceruloplasmin mRNA were cultured in an incubator, and after 48 hours of injection, dark-treated with a hematological staining reagent (o-dianisidine (0.6 mg/ml), 0.01 M sodium acetate (pH 4.5), 0.65% H2O2, 40% ethanol) for 30 minutes, and then washed. After washing, a fixing solution (4% paraformaldehyde) was treated to the subject injected with the ceruloplasmin mRNA, and reacted for at least 1 hour. The subjects injected with the immobilized ceruloplasmin mRNA were placed in 80% glycerol/20% PBS, and photographed under a stereoscopic microscope. […]

The mark [6] stands for this setting: 10 μM, 72 hours after fertilization.
[7] abbreviates: 10 μM, 80 hours after fertilization.
Setting [8] is: copper overexposure, 5.5 days after fertilization, concentration not given.
[9] abbreviates: 5 μM, 48 hours after fertilization.
[10] abbreviates: 5 μM, 52 hours after fertilization.
[11] abbreviates: 10 μM, 48 hours after fertilization.
Setting [12] is: 10 μM, 52 hours after fertilization.

For `CC(C)(S)[C@@H](N)C(=O)O` [DPA, D-Penicillamine], the hatching rate in data set [1] (5 μM, 80 hours after fertilization) is reported as 45.4%; in data set [1] (setting [6]), 36.3%; in data set [1] (setting [7]) it was 81.8%. Moreover, in data set [2], the “subjects expressing the fluorescent protein (cranial ganglia)” value is recorded as 100%.
`NCCNCCNCCN` [TETA, Trientine] yielded a heart rate in data set [3] (setting [8]) of 148 beats per minute. Further, the “heart rate increase compared to the control group (heart rate inhibition rate)” value in data set [3] (setting [8]) is on record as 3.5%. Besides, the hatching rate in data set [1] (setting [9]) was determined as 12.5%; in data set [1] (setting [10]) it was 75%; in data set [1] (5 μM, 56 hours after fertilization), 100%; in data set [1] (setting [11]), 30.7%; in data set [1] (setting [12]), 84.6%; in data set [1] (setting [6]), 92.3%. For the same compound, the hatching rate in data set [1] (setting [7]) is reported as 100%. Also, the “subjects expressing the fluorescent protein (cranial ganglia)” value in data set [2] is recorded as 80%.
Take GKWLLHCHVDDHIIGGMSAIY [CP002]: the developmental toxicity result in data set [4] (10 μM, surviving subjects at 2, 6, 22, 36 hours) is “developmental toxicity was not shown”; in data set [4] (50 to 100 μM, surviving subjects at 2, 6, 22, 36 hours), “developmental toxicity was confirmed”. Further, in data set [4] (5 or 10 μM), the “developmental toxicity (number of surviving subjects and viability)” value is “there was no developmental toxicity”. The same compound came in with a heart rate in data set [3] (setting [8]) of 132 beats per minute. In addition, the “heart rate decrease compared to the normal group (heart rate inhibition rate)” value in data set [3] (zebrafish, in vivo) is 7.7%.
Consider GSWLVKCHVHDHYVGGMETLL [CP001], for which the developmental toxicity result is listed as “developmental toxicity was not confirmed” in data set [4] (5 μM) and “developmental toxicity was confirmed” in data set [4] (10 to 100 μM, surviving subjects at 2, 6, 22, 36 hours). For the same compound, the “developmental toxicity (number of surviving subjects and viability)” value in data set [4] (1 or 4 μM) is “there was no developmental toxicity”.
Consider HCHVDDHIIGGM [CP002S], for which the heart rate in data set [3] (10 μM, copper overexposure, 5.5 days after fertilization) is 135 beats per minute. Besides, the hatching rate in data set [1] (setting [9]) was 10%; in data set [1] (setting [10]), 20%; in data set [1] (5 μM, 72 hours after fertilization), 100%; in data set [1] (setting [11]) it was 80%; in data set [1] (setting [12]), 100%. Also, the “subjects with fluorescent protein expression in the cranial ganglia” value in data set [2] (10 μM with copper) was “all subjects”.
Consider “ceruloplasmin mRNA: mRNA synthesized by in vitro transcription from the Octopus minor ceruloplasmin gene (SEQ ID NO: 1)”, for which, in data set [5], the “blood deposition in tissue (o-dianisidine hematological staining)” value was “abnormal blood deposition in tissue was observed”.
